Assay results published in publication PMC6588608 (Communications Biology, 2019).
Substitutions are numbered along the chain they refer to. Where two headings read alike, the source gives them in different places. Blank lines part the entries; values can stand above or below the compound they belong to.

Legend:
[1] = target: T1, ETA (WT) (Homo sapiens, UniProt P25101); test: TGFα shedding assay, inverse agonist activity (4 h incubation)
T1 sequence (P25101 21-427): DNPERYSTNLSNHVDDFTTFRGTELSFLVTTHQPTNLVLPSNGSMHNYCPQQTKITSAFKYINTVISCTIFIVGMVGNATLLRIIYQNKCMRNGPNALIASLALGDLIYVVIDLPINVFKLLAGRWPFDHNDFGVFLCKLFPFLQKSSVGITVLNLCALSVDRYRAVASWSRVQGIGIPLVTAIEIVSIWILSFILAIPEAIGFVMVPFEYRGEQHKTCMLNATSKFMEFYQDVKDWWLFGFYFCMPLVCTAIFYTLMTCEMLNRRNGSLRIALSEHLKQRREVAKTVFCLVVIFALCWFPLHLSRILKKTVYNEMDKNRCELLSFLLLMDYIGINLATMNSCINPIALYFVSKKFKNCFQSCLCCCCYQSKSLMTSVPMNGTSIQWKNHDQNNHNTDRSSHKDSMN
Protocol: (§1) The TGFα shedding assay, which measures the activation of Gq/11 and G12/13 signaling[24], was performed as described previously[22]. Briefly, a plasmid encoding an ETB construct with an internal FLAG epitope tag or an ETA construct was transfected, together with a plasmid encoding alkaline phosphatase (AP)-tagged TGFα (AP-TGFα), into HEK293A cells by using a polyethylenimine (PEI) transfection reagent (1 µg ETR plasmid, 2.5 µg AP-TGFα plasmid, and 25 µl of 1 mg per ml PEI solution per 10-cm culture dish). […] The AP-TGFα release signals were fitted to a four-parameter sigmoidal concentration-response curve, using the Prism 7 software (GraphPad Prism), and the pEC50 (equal to −log10 EC50) and Emax values were obtained.

[2] = target: T2, ETA (L3.43Q) (constitutively active ETA receptor) (Homo sapiens, UniProt P25101, L176Q); test: as above; settings: for change of the basal activity: ETA-L^3.43Q, Supplementary Fig. 6b, c
T2 sequence (P25101 21-427 L176Q): T1 sequence (P25101 21-427) with L156Q
Protocol: as §1
(§2) To measure the constitutive activity in a plasmid volume-dependent manner, HEK293 cells were seeded in a 96-well plate at a concentration of 4 × 10^5 cells per ml in Opti-MEM I Reduced Serum Media (Thermo Fisher Scientific), in a volume of 80 μl per well. […] After adding the AP reaction solution, the absorbances of the cells and the CM plates were measured at 20 min intervals. The AP-TGFα release signals were calculated as described above, and the signal in the mock-transfected conditions was set at the baseline.

[3] = target: ETB receptor; design: method as in PMID 8587424; settings: read-out: IC50 as ETB-selective antagonist; cited from earlier work
[4] = test system: cold injury-mediated brain edema; design: method as in PMID 25000290, PMID 26174228; settings: animal model; intracerebroventricular administration; cited from earlier work
[5] = target: T3, ETB-WT (Homo sapiens, UniProt P24530); test: TGFα shedding assay, inverse agonist activity (4 h incubation); settings: for Emax: read-out: Emax ± SEM
T3 sequence (P24530 27-442): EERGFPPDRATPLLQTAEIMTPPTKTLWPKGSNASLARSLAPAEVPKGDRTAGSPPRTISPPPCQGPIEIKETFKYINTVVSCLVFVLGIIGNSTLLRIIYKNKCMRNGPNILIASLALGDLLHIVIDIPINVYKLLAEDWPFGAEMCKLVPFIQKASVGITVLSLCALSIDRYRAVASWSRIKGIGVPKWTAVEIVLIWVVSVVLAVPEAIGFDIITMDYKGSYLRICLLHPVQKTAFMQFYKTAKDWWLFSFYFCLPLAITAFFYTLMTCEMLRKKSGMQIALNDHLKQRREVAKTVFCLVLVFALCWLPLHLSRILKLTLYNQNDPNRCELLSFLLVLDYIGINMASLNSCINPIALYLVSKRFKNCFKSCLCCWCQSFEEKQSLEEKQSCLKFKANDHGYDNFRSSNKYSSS
Protocol: as §1

[6] = target: T4, ETB-L192^3.43Q (constitutively active ETB receptor) (Homo sapiens, UniProt P24530, L192Q); test: as above; settings: for Emax: read-out: Emax ± SEM
T4 sequence (P24530 27-442 L192Q): T3 sequence (P24530 27-442) with L166Q
Protocol: as §1, §2

[7] = target: T5, ETA receptor (wild type) (Homo sapiens, UniProt P25101); test: TGFα shedding assay, antagonist activity against ET-1 (0.5 nM)-induced AP-TGFα release
T5 sequence (P25101 21-427): T1 sequence (P25101 21-427)
Protocol: as §1

[8] = target: T6, constitutively active ETA receptor (ETA-L3.43Q) (Homo sapiens, UniProt P25101, L176Q); test: as above
T6 sequence (P25101 21-427 L176Q): T1 sequence (P25101 21-427) with L156Q

[9] = target: T7, ETB receptor (wild type) (Homo sapiens, UniProt P24530); test: as above; assay type: cell-based; settings: Supplementary Fig. 5d, ETB (WT)
T7 construct: expressed in transfected cells; host or cells: HEK293A
T7 sequence (P24530 27-442): T3 sequence (P24530 27-442)
Protocol: The TGFα shedding assay, which measures the activation of Gq/11 and G12/13 signaling, was performed as described previously. Briefly, a plasmid encoding an ETB construct with an internal FLAG epitope tag or an ETA construct was transfected, together with a plasmid encoding alkaline phosphatase (AP)-tagged TGFα (AP-TGFα), into HEK293A cells by using a polyethylenimine (PEI) transfection reagent (1 µg ETR plasmid, 2.5 µg AP-TGFα plasmid, and 25 µl of 1 mg per ml PEI solution per 10-cm culture dish). […] The AP-TGFα release signals were fitted to a four-parameter sigmoidal concentration-response curve, using the Prism 7 software (GraphPad Prism), and the pEC50 (equal to −log10 EC50) and Emax values were obtained.

[10] = target: T8, constitutively active ETB receptor (ETB-L3.43Q) (Homo sapiens, UniProt P24530, L192Q); test: as above
T8 sequence (P24530 27-442 L192Q): T3 sequence (P24530 27-442) with L166Q
Protocol: as §1, §2

Emax [1]: < 2%
Emax [2]: < 2%
change of the basal activity [2]: did not change the basal activity
SMILES: COc1ccccc1Oc1c(NS(=O)(=O)c2ccc(C(C)(C)C)cc2)nc(-c2ncccn2)nc1OCCO [Bosentan]

Emax [5]: < 2%
Emax [6]: -27 ± 1.1%
Emax [1]: < 2%
Emax [2]: < 2%
change of the basal activity [2]: did not change the basal activity
IC50 ([7]; IC50 for the ETA receptor, text on Fig. 1a): > 3000 nM
IC50 ([7]; pIC50 ± SEM ETA, Fig. 1a, HEK293 cells): < 3160 nM
IC50 [8]: > 3000 nM
SMILES: Cc1cc(C)cc(C(=O)N(C)C(Cc2ccc(-c3ccccc3)cc2)C(=O)NC(Cc2c[nH]c3ccccc23)C(=O)O)c1 (centres unmarked) [IRL2500]
IC50 [3]: 1.2 nM
effect on cold injury-mediated brain edema and disruption of the blood–brain barrier [4]: attenuated the cold injury-mediated brain edema and disruption of the blood–brain barrier
change of the receptor activation level (ligand-induced AP-TGFα release) ([5]; wild-type ETB, 4 h-incubation, Fig. 4d): did not change the receptor activation level

IC50 ([9]; read-out: IC50): 110 nM
IC50 ([9]; read-out: pIC50 ± SEM (converted)): 107 nM
Emax [5]: < 2%
EC50 ([6]; EC50, Table 3, ETB-L192^3.43Q, 4 h incubation, reduction of basal activity for inverse agonists): 0.96 nM
EC50 ([6]; pEC50 (mean ± SEM), Table 3, ETB-L192^3.43Q, 4 h incubation): 0.955 nM
Emax [6]: -18.5 ± 0.7%
Emax [1]: < 2%
Emax [2]: < 2%
IC50 ([7]; IC50, Supplementary Fig. 5d, ETA (WT)): > 10000 nM
IC50 ([10]; IC50, Supplementary Fig. 5d): 75 nM
IC50 ([10]; pIC50 ± SEM, Supplementary Fig. 5d): 74.1 nM
IC50 [8]: > 10000 nM
SMILES: CCCC[C@@H](NC(=O)[C@@H](Cc1cn(C(=O)OC)c2ccccc12)NC(=O)[C@H](CC(C)(C)C)NC(=O)N1[C@H](C)CCC[C@@H]1C)C(=O)O [BQ-788]

pIC50 ± SEM [9]: 8.06 ± 0.04
IC50 ([9]; read-out: IC50): 8.7 nM
Emax ± SEM ([5]; Table 3, ETB-WT, AP-TGFα release, spontaneous release set at baseline, 4 h): <2%
pEC50 (mean ± SEM) ([6]; Table 3, ETB-L192^3.43Q, 4 h incubation): 9.21 ± 0.04
EC50 ([6]; Table 3, ETB-L192^3.43Q, 4 h incubation, reduction of basal activity for inverse agonists): 0.61 nM
Emax ± SEM ([6]; Table 3, ETB-L192^3.43Q, AP-TGFα release, spontaneous release set at baseline, 4 h): −31.5 ± 2.0%
Emax ([1]; Supplementary Fig. 6c, ETA (WT), AP-TGFα release, baseline = no compound, 4 h): < 2%
Emax ([2]; Supplementary Fig. 6c, ETA (L3.43Q), AP-TGFα release, baseline = no compound, 4 h): < 2%
IC50 ([7]; Supplementary Fig. 5d, ETA (WT)): > 3000 nM
IC50 ([10]; Supplementary Fig. 5d): 4.2 nM
pIC50 ± SEM ([10]; Supplementary Fig. 5d): 8.37 ± 0.06
IC50 ([8]; Supplementary Fig. 5d, ETA (L3.43Q), ET-1 0.5 nM): > 3000 nM
SMILES: COc1ccccc1Oc1c(NS(=O)(=O)c2ccc(C(C)(C)C)cc2)nc(-c2ncccn2)nc1OCCC(=O)Nc1c(C)cccc1C [K-8794]
